Measurements: US20220144838A1, “Compounds as Inhibitors of Macrophage Migration Inhibitory Factor” (NANJING IMMUNOPHAGE BIOTECH CO., LTD., priority 2019, published 2022)

Molecular target: T1, MIF (Homo sapiens, UniProt P14174)
T1 sequence (P14174 2-115 limits assumed): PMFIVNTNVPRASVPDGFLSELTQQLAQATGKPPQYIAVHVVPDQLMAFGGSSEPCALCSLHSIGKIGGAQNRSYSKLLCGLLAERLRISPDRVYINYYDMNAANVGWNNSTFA
Assay: MIF tautomerase assay using pHPP as substrate
Format: biochemical
Details: inhibition of the MIF enzyme in vitro; mean of multiple test results; read-out: Tautomerase Inhibition pIC50 (converted)
Experimental: Tautomerase Assay Using pHPP as Substrate
This assay measured MIF's tautomerase activity in a cell-free system and was based on the determination of initial rates of the MIF-catalyzed conversion of the ketonic into the enolic tautomer of pHPP. This was achieved by spectrophotometric quantification of the complex between borate and the product of the reaction (enolic pHPP). The substrate was prepared by conversion of the enolic pHPP into its ketonic form. To achieve this, 0.5 M pHPP in methanol was diluted 10-fold with 50 mM sodium acetate buffer at pH 6.0, and then the suspension was shaken for 24 h at room temperature in darkness, and finally stored at 4° C. for not more than 1 week, with 5 min sonication being recommended before use.
Assays were performed in small-volume clear-bottom black 96 or 384-well polystyrene plates (Greiner Bio-One). First, 2 μL of the enzyme solution containing 6 nM of MIF in DPBS, 0.025% w/v BSA, and 300 μM CHAPS was dispensed onto sample and negative control wells using Multidrop Combi with metallic tip cassettes (Thermo Fisher Scientific) previously treated with Sigmacote. Then, 2 μL of the same buffer without MIF was dispensed onto positive control wells. The reaction was started by addition of the following to all wells: 2 μL of substrate solution containing 3 mM ketonic pHPP in 200 mM boric acid, 25 mM sodium phosphate, 0.025% w/v BSA, and 300 μM CHAPS at pH 6.0. In order to remove bubbles, the plate was centrifuged in an Allegra 25R centrifuge (Beckman Coulter, Inc., Brea, Calif.) at 1000 rpm for 2 min at room temperature. Then, the plate was read in an EnVision. Final concentrations of enzyme and substrate were 3 nM and 1.5 mM, respectively. Initial rates were calculated for each well as the slope of the absorbance progress curve.
All exemplified compounds (Examples 1-230) were tested in the MIF tautomerase assay or a similar assay described above. The data mentioned below represents a mean pIC50 value of multiple test results. It is understood that the data illustrated below may have reasonable variation depending on the specific conditions and procedures used by the person conducting the testing.

Row | SMILES | IC50 [nM]
1 | Cc1nc(N2CCN(c3ccc(O)cc3)CC2)nc2c1ncn2-c1cccnc1 [Example 59, 4-(4-(6-methyl-9-(pyridin-3-yl)-9H-purin-2-yl)piperazin-1-yl)phenol] | 100 to 977
2 | Cc1nc(N2CCN(c3ccc(O)cc3)CC2)nc2c1ncn2-c1cccnc1O [Example 60, 3-(2-(4-(4-hydroxyphenyl)piperazin-1-yl)-6-methyl-9H-purin-9-yl)pyridin-2-ol] | 100 to 977
3 | COc1cccc(-n2cnc3c(C)nc(N4CCN(c5ccc(O)cc5)CC4)nc32)c1Cl [Example 61, 4-(4-(9-(2-chloro-3-methoxyphenyl)-6-methyl-9H-purin-2-yl)piperazin-1-yl)phenol] | 1000 to 9770
4 | Cc1nc(N2CCN(c3ccc(O)cc3)CC2)nc2c1ncn2-c1cc(Cl)cnn1 [Example 63, 4-(4-(9-(5-chloropyridazin-3-yl)-6-methyl-9H-purin-2-yl)piperazin-1-yl)phenol] | > 10000
5 | Cc1nc(N2CCN(c3ccc(O)cc3)CC2)nc2c1ncn2-c1cc(N2CCN(c3ccc(O)cc3)CC2)cnn1 [Example 64, 4-(4-(6-(2-(4-(4-hydroxyphenyl)piperazin-1-yl)-6-methyl-9H-purin-9-yl)pyridazin-4-yl)piperazin-1-yl)phenol] | 1000 to 9770
6 | Cc1nc(N2CCN(c3ccc(O)cc3)CC2)nc2c1ncn2-c1cccc(Cl)c1 [Example 65, 4-(4-(9-(3-chlorophenyl)-6-methyl-9H-purin-2-yl)piperazin-1-yl)phenol] | 1000 to 9770
7 | Cc1ccncc1-n1cnc2c(N)nc(N3CCN(c4ccc(O)cc4)CC3)nc21 [Example 67, 4-(4-(6-amino-9-(4-methylpyridin-3-yl)-9H-purin-2-yl)piperazin-1-yl)phenol] | 1000 to 9770
8 | Cc1cncc(-n2cnc3c(N)nc(N4CCN(c5ccc(O)cc5)CC4)nc32)c1 [Example 68, 4-(4-(6-amino-9-(5-methylpyridin-3-yl)-9H-purin-2-yl)piperazin-1-yl)phenol] | > 10000
9 | Nc1nc(N2CCN(c3ccc(O)cc3)CC2)nc2c1ncn2-c1ccc(Cl)cc1Cl [Example 69, 4-(4-(6-amino-9-(2,4-dichlorophenyl)-9H-purin-2-yl)piperazin-1-yl)phenol] | > 10000
10 | Cc1cc(C#N)ccc1-n1cnc2c(N)nc(N3CCN(c4ccc(O)cc4)CC3)nc21 [Example 70, 4-(6-amino-2-(4-(4-hydroxyphenyl)piperazin-1-yl)-9H-purin-9-yl)-3-methylbenzonitrile] | > 10000
11 | N#Cc1ccc(-n2cnc3c(N)nc(N4CCN(c5ccc(O)cc5)CC4)nc32)cc1 [Example 74, 4-(6-amino-2-(4-(4-hydroxyphenyl)piperazin-1-yl)-9H-purin-9-yl)benzonitrile] | 100 to 977
12 | COc1ncccc1-n1cnc2c(N)nc(N3CCN(c4ccc(O)cc4)CC3)nc21 [Example 79, 4-(4-(6-amino-9-(2-methoxypyridin-3-yl)-9H-purin-2-yl)piperazin-1-yl)phenol] | > 10000
13 | COc1cc(-n2cnc3c(N)nc(N4CCN(c5ccc(O)cc5)CC4)nc32)ccn1 [Example 82, 4-(4-(6-amino-9-(2-methoxypyridin-4-yl)-9H-purin-2-yl)piperazin-1-yl)phenol] | 100 to 977
14 | CCOc1ncccc1-n1cnc2c(N)nc(N3CCN(c4ccc(O)cc4)CC3)nc21 [Example 83, 4-(4-(6-amino-9-(2-ethoxypyridin-3-yl)-9H-purin-2-yl)piperazin-1-yl)phenol] | 1000 to 9770
15 | COc1ccc(-n2cnc3c(N)nc(N4CCN(c5ccc(O)cc5)CC4)nc32)c(OC)n1 [Example 84, 4-(4-(6-amino-9-(2,6-dimethoxypyridin-3-yl)-9H-purin-2-yl)piperazin-1-yl)phenol] | 1000 to 9770
16 | COc1ccc(-n2cnc3c(N)nc(N4CCN(c5ccc(O)cc5)CC4)nc32)cn1 [Example 85, 4-(4-(6-amino-9-(6-methoxypyridin-3-yl)-9H-purin-2-yl)piperazin-1-yl)phenol] | 100 to 977
17 | N#Cc1ccc(-n2cnc3c(N)nc(N4CCN(c5ccc(O)cc5)CC4)nc32)cn1 [Example 86, 5-(6-amino-2-(4-(4-hydroxyphenyl)piperazin-1-yl)-9H-purin-9-yl)picolinonitrile] | 100 to 977
18 | Cn1cc(-n2cnc3c(N)nc(N4CCN(c5ccc(O)cc5)CC4)nc32)cn1 [Example 88, 4-(4-(6-amino-9-(1-methyl-1H-pyrazol-4-yl)-9H-purin-2-yl)piperazin-1-yl)phenol] | 1000 to 9770
19 | Oc1ccc(N2CCN(c3nc(NCc4ccccc4)c4ncn(-c5cccnc5)c4n3)CC2)cc1 [Example 90, 4-(4-(6-(benzylamino)-9-(pyridin-3-yl)-9H-purin-2-yl)piperazin-1-yl)phenol] | 1000 to 9770
20 | Oc1ccc(N2CCN(c3nc(NCCc4ccccc4)c4ncn(-c5cccnc5)c4n3)CC2)cc1 [Example 91, 4-(4-(6-(phenethylamino)-9-(pyridin-3-yl)-9H-purin-2-yl)piperazin-1-yl)phenol] | 100 to 977
21 | Oc1ccc(N2CCN(c3nc(N4CCCC4)c4ncn(-c5cccnc5)c4n3)CC2)cc1 [Example 92, 4-(4-(9-(pyridin-3-yl)-6-(pyrrolidin-1-yl)-9H-purin-2-yl)piperazin-1-yl)phenol] | 1000 to 9770
22 | OC[C@H]1CCCN1c1nc(N2CCN(c3ccc(O)cc3)CC2)nc2c1ncn2-c1cccnc1 [Example 93, (R)-4-(4-(6-(2-(hydroxymethyl)pyrrolidin-1-yl)-9-(pyridin-3-yl)-9H-purin-2-yl)piperazin-1-yl)phenol] | 100 to 977

Results, then the compound that gave them:

Row | IC50 [nM] | SMILES
23 | 1000 to 9770 | Nc1nc(N2CCN(c3ccc(O)cc3)CC2)nc2c1ncn2-c1ccccc1 [Example 66, 4-(4-(6-amino-9-phenyl-9H-purin-2-yl)piperazin-1-yl)phenol]
24 | 1000 to 9770 | Nc1nc(N2CCN(c3ccc(O)cc3)CC2)nc2c1ncn2-c1ccccc1F [Example 71, 4-(4-(6-amino-9-(2-fluorophenyl)-9H-purin-2-yl)piperazin-1-yl)phenol]
25 | 1000 to 9770 | Nc1nc(N2CCN(c3ccc(O)cc3)CC2)nc2c1ncn2-c1cccc(F)c1 [Example 72, 4-(4-(6-amino-9-(3-fluorophenyl)-9H-purin-2-yl)piperazin-1-yl)phenol]
26 | > 10000 | Nc1nc(N2CCN(c3ccc(O)cc3)CC2)nc2c1ncn2-c1ccc(F)cc1 [Example 73, 4-(4-(6-amino-9-(4-fluorophenyl)-9H-purin-2-yl)piperazin-1-yl)phenol]
27 | > 10000 | Nc1nc(N2CCN(c3ccc(O)cc3)CC2)nc2c1ncn2-c1ccc(Cl)cc1 [Example 75, 4-(4-(6-amino-9-(4-chlorophenyl)-9H-purin-2-yl)piperazin-1-yl)phenol]
28 | > 10000 | Cc1ccccc1-n1cnc2c(N)nc(N3CCN(c4ccc(O)cc4)CC3)nc21 [Example 76, 4-(4-(6-amino-9-(o-tolyl)-9H-purin-2-yl)piperazin-1-yl)phenol]
29 | 1000 to 9770 | Nc1nc(N2CCN(c3ccc(O)cc3)CC2)nc2c1ncn2-c1cccc(O)c1 [Example 77, 3-(6-amino-2-(4-(4-hydroxyphenyl)piperazin-1-yl)-9H-purin-9-yl)phenol]
30 | 1000 to 9770 | Nc1nc(N2CCN(c3ccc(O)cc3)CC2)nc2c1ncn2-c1cccc(-c2ccccc2)c1 [Example 78, 4-(4-(9-([1,1′-biphenyl]-3-yl)-6-amino-9H-purin-2-yl)piperazin-1-yl)phenol]
31 | 1000 to 9770 | Nc1nc(N2CCN(c3ccc(O)cc3)CC2)nc2c1ncn2Cc1ccccc1 [Example 89, 4-(4-(6-amino-9-benzyl-9H-purin-2-yl)piperazin-1-yl)phenol]
